According to publication PMC3388080 (PLoS ONE, 2012):
Marks after values point to notes of the source that are not given here.

Test system: male Sprague-Dawley rats
Experiment: EEG/EMG/Tcore/LMA telemetry sleep study 3 (almorexant vs ZOL)
Format: in vivo, rat
Details: for REM:NR ratio: 6 h after dosing
Description: All rodent electroencephalograph (EEG) studies were performed at SRI International. Three groups of eight male Sprague-Dawley rats (300±25 g; Charles River, Wilmington, MA) were implanted with chronic recording devices (F40-EET, Data Sciences Inc., St Paul, MN) for continuous recordings of EEG, electromyograph (EMG), core body temperature (Tcore), and LMA via telemetry as previously described. Data recording and scoring were performed as previously reported (see also Supplemental Material and Methods). The EEG and EMG data were scored in 10 sec epochs for waking (W), rapid eye movement sleep (REM), and non-REM sleep (NR). Tcore and LMA (counts per minute) were analyzed as hourly means. Data from the EEG studies are reported in hourly means such that the hourly time ZT1 refers to the hour between time points ZT0 and ZT1.
For each of the three separate studies, a repeated measures counter-balanced design was employed in which each rat received five separate dosings. […] All dosings were administered ip in a volume of 2 ml/kg. A minimum of 3 d elapsed between doses. Dosing occurred during the middle of the rats’ normal active period at the start of ZT19 and was typically completed within 10 min. Animals were continuously recorded for 6 h prior to dosing and for 18 h following dosing.

[1] = 6 h Average, almorexant 10 mg/kg ip
[2] = 6 h Total, almorexant 10 mg/kg ip

CNC(=O)[C@@H](c1ccccc1)N1CCc2cc(OC)c(OC)cc2[C@@H]1CCc1ccc(C(F)(F)F)cc1 [almorexant, (2R)-2-[(1S)-6,7-Dimethoxy-1-[2-(4-trifluoromethyl-phenyl)-ethyl]-3,4-dihydro-1H-isoquinolin-2-yl]-N-methyl-2-phenyl-acetamide]
cumulative REM (in words) (30 mg/kg ip, first 2 h): Cumulative REM also increased
cumulative REM (in words) (100 mg/kg ip, 6 h period): Cumulative REM also increased
numbers of W and NR bouts (in words) (100 mg/kg ip, ZT19, ZT20, ZT22-ZT24): increased numbers of W and NR bouts
W bout duration (in words) (100 mg/kg ip, ZT22, vs vehicle): decreased
number of REM bouts (in words) (100 mg/kg ip, ZT22-ZT24): increased
LMA (in words) (100 mg/kg ip, across 6 h, vs vehicle): LMA was decreased
NR latency (in words) (30 and 100 mg/kg ip at ZT19, vs vehicle): reduced NR latency
cumulative NR (in words) (30 and 100 mg/kg ip, 2, 4 and 6 h): increased cumulative NR
NR bout duration (6 h Average, 30 mg/kg ip): 1.25 ±0.09^+
REM bout duration (6 h Average, 30 mg/kg ip): 1.32 ± 0.10
W bout duration (6 h Average, 30 mg/kg ip): 2.53 ± 0.41
NR bout duration (6 h Average, 100 mg/kg ip): 1.20 ± 0.08^+
REM bout duration (6 h Average, 100 mg/kg ip): 1.20 ± 0.12
W bout duration (6 h Average, 100 mg/kg ip): 1.59 ± 0.20*^+
NR bout duration [1]: 1.22 ± 0.08^+
REM bout duration [1]: 1.11 ± 0.13
W bout duration [1]: 4.37 ± 1.09
Number of NR bouts (6 h Total, 30 mg/kg ip): 103.0 ± 9.60*^+
Number of REM bouts (6 h Total, 30 mg/kg ip): 20.38 ± 3.12^+
Number of NR bouts (6 h Total, 100 mg/kg ip): 127.0 ± 6.02*^+
Number of REM bouts (6 h Total, 100 mg/kg ip): 27.75 ± 3.26*^+
Number of W bouts (6 h Total, 100 mg/kg ip): 109.38 ±7.91*^+
Number of NR bouts [2]: 82.00 ±9.10
Number of REM bouts [2]: 18.00 ± 3.80^+
Number of W bouts [2]: 67.50 ± 8.89
REM:NR ratio (10 mg/kg ip (almorexant)): 0.19±0.026^+
REM:NR ratio (30 mg/kg ip): 0.20±0.022^+
REM:NR ratio (100 mg/kg ip): 0.21±0.021^+
NR during the subsequent light period (in words) (ZT1 and ZT6, 30 mg/kg ip, vs vehicle): NR increased
NR bout duration (ZT19, 30 mg/kg ip): 1.33 ± 0.14^+
Number of NR bouts (ZT19, 30 mg/kg ip): 15.00 ± 1.83
Number of REM bouts (ZT19, 30 mg/kg ip): 2.63 ± 0.50*^+
Number of W bouts (ZT19, 30 mg/kg ip): 10.38 ± 1.53
REM bout duration (ZT19, 30 mg/kg ip): 1.52 ± 0.26*^+
W bout duration (ZT19, 30 mg/kg ip): 4.69 ± 1.87
NR bout duration (ZT19, 100 mg/kg ip): 1.50 ± 0.14*^+
Number of NR bouts (ZT19, 100 mg/kg ip): 14.00 ± 1.25
Number of REM bouts (ZT19, 100 mg/kg ip): 1.25 ± 0.49
Number of W bouts (ZT19, 100 mg/kg ip): 12.25 ± 1.74
REM bout duration (ZT19, 100 mg/kg ip): 1.44 ± 0.38*^+
W bout duration (ZT19, 100 mg/kg ip): 3.31 ± 0.65
NR bout duration (ZT19, almorexant 10 mg/kg ip): 1.27 ± 0.15^+
Number of NR bouts (ZT19, almorexant 10 mg/kg ip): 8.63 ± 1.82
Number of REM bouts (ZT19, almorexant 10 mg/kg ip): 1.75 ± 0.53
Number of W bouts (ZT19, almorexant 10 mg/kg ip): 6.63 ± 1.50
REM bout duration (ZT19, almorexant 10 mg/kg ip): 0.76 ± 0.19*^+
W bout duration (ZT19, almorexant 10 mg/kg ip): 9.90 ± 3.21
NR bout duration (ZT20, 30 mg/kg ip): 1.34 ± 0.08^+
Number of NR bouts (ZT20, 30 mg/kg ip): 19.75 ± 2.25
Number of REM bouts (ZT20, 30 mg/kg ip): 4.38 ± 1.08^+
Number of W bouts (ZT20, 30 mg/kg ip): 16.38 ± 1.68^+
REM bout duration (ZT20, 30 mg/kg ip): 1.37 ± 0.05^+
W bout duration (ZT20, 30 mg/kg ip): 1.96 ± 0.75
NR bout duration (ZT20, 100 mg/kg ip): 1.37 ± 0.12^+
Number of NR bouts (ZT20, 100 mg/kg ip): 22.25 ± 2.36
Number of REM bouts (ZT20, 100 mg/kg ip): 3.00 ± 1.20
Number of W bouts (ZT20, 100 mg/kg ip): 18.38 ± 1.40*^+
REM bout duration (ZT20, 100 mg/kg ip): 1.08 ± 0.15^+
W bout duration (ZT20, 100 mg/kg ip): 1.41 ± 0.13^+
NR bout duration (ZT20, almorexant 10 mg/kg ip): 1.31 ± 0.09^+
Number of NR bouts (ZT20, almorexant 10 mg/kg ip): 19.38 ± 2.38
Number of REM bouts (ZT20, almorexant 10 mg/kg ip): 4.13 ± 0.97^+
Number of W bouts (ZT20, almorexant 10 mg/kg ip): 14.88 ± 2.05^+
REM bout duration (ZT20, almorexant 10 mg/kg ip): 1.16 ± 0.17^+
W bout duration (ZT20, almorexant 10 mg/kg ip): 2.37 ± 0.70
NR bout duration (ZT21, 30 mg/kg ip): 1.27 ± 0.09^+
Number of NR bouts (ZT21, 30 mg/kg ip): 20.75 ± 1.39
Number of REM bouts (ZT21, 30 mg/kg ip): 5.25 ± 1.16^+
Number of W bouts (ZT21, 30 mg/kg ip): 18.38 ± 1.39^+
REM bout duration (ZT21, 30 mg/kg ip): 1.26 ± 0.14
W bout duration (ZT21, 30 mg/kg ip): 1.43 ± 0.30^+
NR bout duration (ZT21, 100 mg/kg ip): 1.31 ± 0.15^+
Number of NR bouts (ZT21, 100 mg/kg ip): 23.75 ± 1.47
Number of REM bouts (ZT21, 100 mg/kg ip): 6.75 ± 1.06^+
Number of W bouts (ZT21, 100 mg/kg ip): 20.88 ± 2.21^+
REM bout duration (ZT21, 100 mg/kg ip): 1.28 ± 0.18
W bout duration (ZT21, 100 mg/kg ip): 0.93 ± 0.15^+
NR bout duration (ZT21, almorexant 10 mg/kg ip): 1.17 ± 0.16^+
Number of NR bouts (ZT21, almorexant 10 mg/kg ip): 15.88 ± 2.00
Number of REM bouts (ZT21, almorexant 10 mg/kg ip): 4.75 ± 1.13^+
Number of W bouts (ZT21, almorexant 10 mg/kg ip): 13.50 ± 1.73
REM bout duration (ZT21, almorexant 10 mg/kg ip): 1.40 ± 0.16
W bout duration (ZT21, almorexant 10 mg/kg ip): 3.03 ± 0.90
NR bout duration (ZT22, 30 mg/kg ip): 1.04 ± 0.11^+
Number of NR bouts (ZT22, 30 mg/kg ip): 17.25 ± 2.58
Number of REM bouts (ZT22, 30 mg/kg ip): 2.88 ± 0.74
Number of W bouts (ZT22, 30 mg/kg ip): 14.88 ± 1.99
REM bout duration (ZT22, 30 mg/kg ip): 1.26 ± 0.17
W bout duration (ZT22, 30 mg/kg ip): 3.07 ± 0.83
NR bout duration (ZT22, 100 mg/kg ip): 1.12 ± 0.15
Number of NR bouts (ZT22, 100 mg/kg ip): 23.88 ± 1.34
Number of REM bouts (ZT22, 100 mg/kg ip): 7.38 ± 1.49*^+
Number of W bouts (ZT22, 100 mg/kg ip): 20.00 ± 0.89*^+
REM bout duration (ZT22, 100 mg/kg ip): 1.07 ± 0.18
W bout duration (ZT22, 100 mg/kg ip): 1.13 ± 0.15^+
NR bout duration (ZT22, almorexant 10 mg/kg ip): 1.07 ± 0.19^+
Number of NR bouts (ZT22, almorexant 10 mg/kg ip): 14.38 ± 2.58
Number of REM bouts (ZT22, almorexant 10 mg/kg ip): 2.88 ± 0.81
Number of W bouts (ZT22, almorexant 10 mg/kg ip): 13.00 ± 2.92
REM bout duration (ZT22, almorexant 10 mg/kg ip): 1.05 ± 0.36
W bout duration (ZT22, almorexant 10 mg/kg ip): 4.74 ± 1.57
NR bout duration (ZT23, 30 mg/kg ip): 1.03 ± 0.12
Number of NR bouts (ZT23, 30 mg/kg ip): 16.63 ± 2.88
Number of REM bouts (ZT23, 30 mg/kg ip): 2.88 ± 0.93
Number of W bouts (ZT23, 30 mg/kg ip): 15.13 ± 2.71
REM bout duration (ZT23, 30 mg/kg ip): 0.91 ± 0.19
W bout duration (ZT23, 30 mg/kg ip): 5.53 ± 3.36
NR bout duration (ZT23, 100 mg/kg ip): 0.90 ± 0.07
Number of NR bouts (ZT23, 100 mg/kg ip): 23.13 ± 2.61
Number of REM bouts (ZT23, 100 mg/kg ip): 4.00 ± 0.82
Number of W bouts (ZT23, 100 mg/kg ip): 21.00 ± 3.02
REM bout duration (ZT23, 100 mg/kg ip): 1.16 ± 0.12
W bout duration (ZT23, 100 mg/kg ip): 2.15 ± 0.68
NR bout duration (ZT23, almorexant 10 mg/kg ip): 1.11 ± 0.19
Number of NR bouts (ZT23, almorexant 10 mg/kg ip): 8.00 ± 1.68
Number of REM bouts (ZT23, almorexant 10 mg/kg ip): 1.25 ± 0.65
Number of W bouts (ZT23, almorexant 10 mg/kg ip): 6.63 ± 1.88
REM bout duration (ZT23, almorexant 10 mg/kg ip): 0.61 ± 0.17
W bout duration (ZT23, almorexant 10 mg/kg ip): 12.59 ± 3.87
NR bout duration (ZT24, 30 mg/kg ip): 1.50 ± 0.24
Number of NR bouts (ZT24, 30 mg/kg ip): 19.88 ± 2.63
Number of REM bouts (ZT24, 30 mg/kg ip): 2.38 ± 0.98
Number of W bouts (ZT24, 30 mg/kg ip): 12.00 ± 2.70
REM bout duration (ZT24, 30 mg/kg ip): 0.98 ± 0.15
W bout duration (ZT24, 30 mg/kg ip): 4.32 ± 1.06
NR bout duration (ZT24, 100 mg/kg ip): 1.14 ± 0.08
Number of NR bouts (ZT24, 100 mg/kg ip): 19.88 ± 1.14
Number of REM bouts (ZT24, 100 mg/kg ip): 5.25 ± 1.08*^+
Number of W bouts (ZT24, 100 mg/kg ip): 15.88 ± 1.14
REM bout duration (ZT24, 100 mg/kg ip): 1.16 ± 0.14^+
W bout duration (ZT24, 100 mg/kg ip): 1.92 ± 0.34
NR bout duration (ZT24, almorexant 10 mg/kg ip): 1.14 ± 0.14
Number of NR bouts (ZT24, almorexant 10 mg/kg ip): 15.25 ± 2.30
Number of REM bouts (ZT24, almorexant 10 mg/kg ip): 3.25 ± 0.94
Number of W bouts (ZT24, almorexant 10 mg/kg ip): 12.00 ± 2.10
REM bout duration (ZT24, almorexant 10 mg/kg ip): 1.02 ± 0.21^+
W bout duration (ZT24, almorexant 10 mg/kg ip): 4.00 ± 1.17
REM bout duration (in words) (first hour after treatment): significantly increased REM bout duration
Tcore (in words) (high concentration tested, across 6 h): decreased Tcore
REM bouts compared to vehicle (highest dose (100 mg/kg), latter half of the dark period): 2 to 3 fold
latency to REM sleep (in words) (only 30 mg/kg ip at ZT19, vs vehicle): decreased latency to REM sleep
